Reference: patent US9024041B2, “P38 MAP kinase inhibitors” (Respivert Ltd., priority 2010, dated 2015)

Assays:
[1] = tested on: LPS-induced TNFα release in d-U937 cells; assay: LPS-induced TNFα release in d-U937 cells; assay type: cell-based; conditions: Homo sapiens, dU937, 4 h; read-out: LPS/TNFα REC50 d-U937
Method: (§1) Cellular Potency as Determined by LPS-Induced TNFα/IL-8 Release in d-U937Cells
(§2) U937 cells, a human monocytic cell line, were differentiated to macrophage-type cells by incubation with phorbol myristate acetate (PMA; 100 ng/mL) for 48 to 72 hr. Cells were pre-incubated with final concentrations of test compound for 2 hr and were then stimulated with 0.1 μg/mL of LPS (from E. Coli: O111:B4, Sigma) for 4 hr. The supernatant was collected for determination of TNFα and IL-8 concentrations by sandwich ELISA (Duo-set, R&D systems). […] The relative 50% effective concentration (REC50) was determined from the resultant concentration-response curve. The inhibition of IL-8 production was calculated at each concentration of test compound by comparison with vehicle control. The 50% inhibitory concentration (IC50) was determined from the resultant concentration-response curve.

[2] = tested on: Differentiated U937 cells; assay: MTT assay: cell viability on exposure to test compounds; assay type: cell-based, human; conditions: percentage loss of cell viability vs vehicle, 1 μg/mL; for MTT Assay (Viability) 4 h d-U937: 5% FCS; for MTT Assay (Viability) 24 h d-U937: 10% FCS
Method: MTT Assay: Determination of Cell Viability on Exposure to Test Compounds
Differentiated U937 cells were pre-incubated with each test compound under two protocols: the first for 4 hr in 5% FCS and the second in 10% FCS for 24 h. The supernatant was replaced with 200 μL of new media and 10 μL of MTT stock solution (5 mg/mL) was added to each well. After incubation for 1 hr the media were removed, 200 μL of DMSO was added to each well and the plates were shaken lightly for 1 hr prior to reading the absorbance at 550 nm. The percentage loss of cell viability was calculated for each well relative to vehicle (0.5% DMSO) treatment. Consequently an apparent increase in cell viability for drug treatment relative to vehicle is tabulated as a negative percentage.

[3] = tested on: LPS-induced IL-8 release in d-U937 cells; assay: LPS-induced IL-8 release in d-U937 cells; assay type: cell-based; conditions: Homo sapiens, dU937, 0.1 μg/mL LPS, 4 hr
Method: as §1, §2

[4] = molecular target: T1, Recombinant, phosphorylated p38 MAPKγ (MAPK12:Invitrogen) (Homo sapiens, UniProt P53778); assay: p38 MAPKγ enzyme inhibition assay (FRET, Z-LYTE); assay type: biochemical; conditions: 2 hr pre-incubation, ATP 100 μM; read-out: Enzyme Inhibition IC50 p38γ
T1 construct: purchased Invitrogen
T1 sequence (P53778 1-367): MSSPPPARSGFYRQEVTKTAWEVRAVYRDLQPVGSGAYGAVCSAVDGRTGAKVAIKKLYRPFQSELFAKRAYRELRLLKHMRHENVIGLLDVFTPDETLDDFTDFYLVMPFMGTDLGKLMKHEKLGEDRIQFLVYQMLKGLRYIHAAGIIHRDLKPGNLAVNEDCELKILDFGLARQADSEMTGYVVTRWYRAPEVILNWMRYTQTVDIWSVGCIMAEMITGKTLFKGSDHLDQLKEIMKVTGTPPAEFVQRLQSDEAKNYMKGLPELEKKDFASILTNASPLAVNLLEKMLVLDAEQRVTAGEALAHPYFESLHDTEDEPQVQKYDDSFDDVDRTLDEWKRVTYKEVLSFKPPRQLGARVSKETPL

[5] = tested on: Poly I:C-induced ICAM-1 expression in BEAS2B cells; assay: Poly I:C-induced ICAM-1 induction in BEAS2B cells; assay type: cell-based; conditions: Homo sapiens, BEAS-2B, poly I:C 1 μg/mL, 18 hr, read-out: PolyI:C/ICAM1 IC50 BEAS2B
Method: Cellular Potency as Determined by Poly I:C-Induced ICAM-1 Induction in BEAS2B Cells
Poly I:C (1 μg/mL) (Invivogen Ltd., San Diego, Calif.) was transfected into BEAS2B cells (human bronchial epithelial cells, ATCC) with Oligofectamine (Invitrogen, Carlsbad, Calif.). Cells were pre-incubated with final concentrations of test compounds for 2 hr and the level of ICAM1 expression on the cell surface was determined by cell-based ELISA. At a time point 18 hr after poly I:C transfection, cells were fixed with 4% formaldehyde in PBS and then endogenous peroxidase was quenched by the addition of 0.1% sodium azide and 1% hydrogen peroxide. Cells were washed with wash-buffer (0.1% Tween in PBS: PBS-Tween). and after blocking the wells with 5% milk in PBS-Tween for 1 hr, the cells were incubated with anti-human ICAM-1 antibody (Cell Signaling Technology, Danvers, Mass.) in 1% BSA PBS overnight at 4° C. The cells were washed with PBS-Tween and incubated with the secondary antibody (HRP-conjugated anti-rabbit IgG, Dako Ltd., Glostrup, Denmark). The ICAM-1 signal was detected by adding substrate and reading the absorbance at 450 nm against a reference wavelength of 655 nm using a spectrophotometer. The cells were then washed with PBS-Tween and total cell numbers in each well were determined by reading absorbance at 595 nm after Crystal Violet staining and elution by 1% SDS solution. The measured OD 450-655 readings were corrected for cell number by dividing with the OD595 reading in each well. The inhibition of ICAM-1 expression was calculated at each concentration of test compound by comparison with vehicle control. The 50% inhibitory concentration (IC50) was determined from the resultant concentration-response curve.

[6] = tested on: LPS-induced TNFα release in THP-1 cells; assay: LPS-induced TNFα release in THP-1 cells; assay type: cell-based; conditions: Homo sapiens, 3 μg/mL LPS, 4 hr
Method: Cellular Potency as Determined by LPS-Induced TNFα Release in THP-1 Cells
THP-1 cells, a human monocytic cell line, were stimulated with 3 μg/mL of LPS (from E. Coli; 0111:B4, Sigma) for 4 hr and the supernatant collected for determination of the TNFα concentration by sandwich ELISA (Duo-set, R&D systems). The inhibition of TNFα production was calculated at each concentration by comparison with vehicle control. The 50% inhibitory concentration (IC50) was determined from the resultant concentration-response curve.

[7] = molecular target: T2, p38 MAPKα isoform (MAPK14: Invitrogen) (Homo sapiens, UniProt Q16539); assay: p38 MAPKα enzyme inhibition assay (FRET, Z-LYTE, via MAPKAP-K2 activation); assay type: biochemical; conditions: 2 hr pre-incubation, ATP 10.0 μM; read-out: Enzyme Inhibition IC50 p38α
T2 construct: purchased Invitrogen
T2 sequence (Q16539 whole entry, canonical isoform): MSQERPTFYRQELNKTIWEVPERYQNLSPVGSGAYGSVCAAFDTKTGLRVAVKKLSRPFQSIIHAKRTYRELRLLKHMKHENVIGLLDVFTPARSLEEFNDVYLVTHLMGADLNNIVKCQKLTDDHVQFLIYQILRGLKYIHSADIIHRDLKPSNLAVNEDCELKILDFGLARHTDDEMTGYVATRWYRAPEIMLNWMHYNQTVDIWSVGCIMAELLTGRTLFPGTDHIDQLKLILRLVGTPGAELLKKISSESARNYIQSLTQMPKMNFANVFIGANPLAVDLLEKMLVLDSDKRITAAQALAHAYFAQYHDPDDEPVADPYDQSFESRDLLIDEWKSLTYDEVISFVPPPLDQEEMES
Method: The enzyme inhibitory activities of compounds disclosed herein were determined by fluorescence resonance energy transfer (FRET) using synthetic peptides labelled with both donor and acceptor fluorophores (Z-LYTE, Invitrogen Ltd., Paisley, UK). Recombinant, phosphorylated p38 MAPKγ (MAPK12:Invitrogen) was diluted in HEPES buffer, mixed with the test compound at the desired final concentrations and incubated for 2 hr at RT. The FRET peptide (2 μM) and ATP (100 μM) were added to the enzyme/compound mixture and incubated for 1 hr. Development reagent (protease) was added for 1 hr prior to detection in a fluorescence microplate reader (Varioskan® Flash, ThermoFisher Scientific). The site-specific protease cleaves non-phosphorylated peptide only and eliminates the FRET signal. Phosphorylation levels of each reaction were calculated using the ratio of coumarin emission (donor) over fluorescein emission (acceptor) for which high ratios indicate high phosphorylation and low ratios indicate low phosphorylation levels.
For the p38 MAPKα isoform (MAPK14: Invitrogen), enzyme activity was evaluated indirectly by determining the level of activation/phosphorylation of the down-stream molecule, MAPKAP-K2. The p38 MAPKα protein was mixed with the test compound for 2 hr at RT. […] Development reagent was then added and the mixture incubated for 1 hr before detection by fluorescence completed the assay protocol.

`COc1ccc(-n2nc(C(C)(C)C)cc2NC(=O)Nc2ccc(Oc3ccnc(NC(=O)CO)c3)c3ccccc23)cc1` [Example 4, N-(4-(4-(3-(3-tert-Butyl-1-(4-methoxyphenyl)-1H-pyrazol-5-yl)ureido)naphthalen-1-yloxy)pyridin-2-yl)-2-hydroxyacetamide] was tested, and the EC50 [1] was 0.04 nM, the “MTT Assay (Viability) 4 h d-U937” value [2] was −3.9% and the “MTT Assay (Viability) 24 h d-U937” value [2] was −38.2%. The IC50 [3] was 3 nM, the IC50 [4] was 150 nM and the IC50 [5] was 4 nM. It also gave an IC50 [6] of 1.3 nM and an IC50 [7] of 4.6 nM.
`CNC(=O)Nc1cc(Oc2ccc(NC(=O)Nc3cc(C(C)(C)C)nn3-c3ccc(S(C)(=O)=O)cc3)c3ccccc23)ccn1` [Example 46, 1-(3-tert-butyl-1-(4-(methylsulfonyl)phenyl)-1H-pyrazol-5-yl)-3-(4-((2-(3-methylureido)pyridin-4-yl)oxy)naphthalen-1-yl)urea] was tested, and the EC50 [1] was 0.4 nM, the “MTT Assay (Viability) 4 h d-U937” value [2] was −12.6% and the “MTT Assay (Viability) 24 h d-U937” value [2] was −47.9%. The IC50 [3] was 2 nM, the IC50 [4] was 104 nM and the IC50 [5] was 41.2 nM. It also gave an IC50 [6] of 2.3 nM and an IC50 [7] of 36.2 nM.
In the case of `COCC(=O)Nc1cc(COc2ccc(NC(=O)Nc3cc(C(C)(C)C)nn3-c3ccc(OC)nc3)c(C)c2C)ccn1` [Example 61, N-(4-((4-(3-(3-tert-butyl-1-(6-methoxypyridin-3-yl)-1H-pyrazol-5-yl)ureido)-2,3-dimethylphenoxy)methyl)pyridin-2-yl)-2-methoxy acetamide], the EC50 [1] is reported as 120 nM, the “MTT Assay (Viability) 4 h d-U937” value [2] is reported as 3.5% and the “MTT Assay (Viability) 24 h d-U937” value [2] is reported as −5.1%. For the same compound, the IC50 [3] was 204 nM, the IC50 [4] was 2810 nM and the IC50 [5] was > 1700 nM. The IC50 [6] was 1260 nM and the IC50 [7] was 12.8 nM.
In the case of `COCC(=O)Nc1cc(Oc2ccc(NC(=O)Nc3cc(C(C)(C)C)nn3-c3ccc(N)cc3)c3ccccc23)ccn1` [Example 1, N-(4-(4-(3-(1-(4-Aminophenyl)-3-tert-butyl-1H-pyrazol-5-yl)ureido)naphthalen-1-yloxy)pyridin-2-yl)-2-methoxyacetamide], the EC50 [1] is reported as 0.6 nM, the “MTT Assay (Viability) 4 h d-U937” value [2] is reported as −26.6% and the “MTT Assay (Viability) 24 h d-U937” value [2] is reported as 78.0%. For the same compound, the IC50 [3] was 1 nM, the IC50 [4] was 72.4 nM and the IC50 [5] was 8.3 nM. It also gave an IC50 [6] of 1 nM and an IC50 [7] of 0.9 nM.
In the case of `COCC(=O)Nc1cc(Oc2ccc(NC(=O)Nc3cc(C4(C)CCCCC4)nn3-c3ccc(C)cc3)c3ccccc23)ccn1` [Example 26, 2-methoxy-N-(4-(4-(3-(3-(1-methylcyclohexyl)-1-p-tolyl-1H-pyrazol-5-yl)ureido)naphthalen-1-yloxy)pyridin-2-yl)acetamide], the EC50 [1] is reported as 0.4 nM, the “MTT Assay (Viability) 4 h d-U937” value [2] is reported as −27.9% and the “MTT Assay (Viability) 24 h d-U937” value [2] is reported as −33.2%. For the same compound, the IC50 [3] was 1 nM, the IC50 [4] was 779 nM and the IC50 [5] was 4.4 nM. For the same compound, the IC50 [6] was 3.5 nM and the IC50 [7] was 48.2 nM.
In the case of `COCC(=O)Nc1cc(Oc2ccc(NC(=O)Nc3cc(C(C)(C)C)nn3-c3cc(C)cs3)c3ccccc23)ccn1` [Example 18, N-(4-(4-(3-(3-tert-Butyl-1-(4-methylthiophen-2-yl)-1H-pyrazol-5-yl)ureido)naphthalen-1-yloxy)pyridin-2-yl)-2-methoxyacetamide], the EC50 [1] is reported as 0.7 nM, the “MTT Assay (Viability) 4 h d-U937” value [2] is reported as 8.2% and the “MTT Assay (Viability) 24 h d-U937” value [2] is reported as −2.9%. For the same compound, the IC50 [3] was 40 nM, the IC50 [4] was 95.5 nM and the IC50 [5] was 3.7 nM. For the same compound, the IC50 [6] was 1.2 nM and the IC50 [7] was 8.8 nM.
In the case of `COCC(=O)Nc1cc(Oc2ccc(NC(=O)Nc3cc(C(C)(C)C)nn3-c3cccs3)c3ccccc23)ccn1` [Example 56, N-(4-(4-(3-(3-tert-butyl-1-(thiophen-2-yl)-1H-pyrazol-5-yl)ureido)naphthalen-1-yloxy)pyridin-2-yl)-2-methoxyacetamide], the “MTT Assay (Viability) 4 h d-U937” value [2] is reported as 4.8%, the “MTT Assay (Viability) 24 h d-U937” value [2] is reported as 43.1% and the IC50 [3] is reported as 0.5 nM. The IC50 [4] was 55 nM, the IC50 [5] was 13.4 nM and the IC50 [6] was 0.6 nM. For the same compound, the IC50 [7] was 6.6 nM.
`COCC(=O)Nc1cc(Oc2ccc(NC(=O)Nc3cc(C(C)(C)C)nn3-c3ccc(CO)c(OC)c3)c3ccccc23)ccn1` [Example 51, N-(4-(4-(3-(3-tert-butyl-1-(4-(hydroxymethyl)-3-methoxyphenyl)-1H-pyrazol-5-yl)ureido)naphthalen-1-yloxy)pyridin-2-yl)-2-methoxy acetamide] was tested, and the “MTT Assay (Viability) 4 h d-U937” value [2] was −5.2%, the “MTT Assay (Viability) 24 h d-U937” value [2] was 61.0% and the IC50 [3] was 38.7 nM. For the same compound, the IC50 [4] was 149 nM, the IC50 [5] was 2.5 nM and the IC50 [6] was 1.6 nM. For the same compound, the IC50 [7] was 11.9 nM.
`COCC(=O)Nc1cc(Oc2ccc(NC(=O)Nc3cc(C4(C)CC4)nn3-c3ccc(C)cc3)c3ccccc23)ccn1` [Example 25, 2-methoxy-N-(4-(4-(3-(3-(1-methylcyclopropyl)-1-p-tolyl-1H-pyrazol-5-yl)ureido)naphthalen-1-yloxy)pyridin-2-yl)acetamide] was tested, and the “MTT Assay (Viability) 4 h d-U937” value [2] was −7.6%, the “MTT Assay (Viability) 24 h d-U937” value [2] was 4.7% and the IC50 [3] was 0.7 nM. The IC50 [4] was 3010 nM, the IC50 [5] was 21.8 nM and the IC50 [6] was 0.9 nM. It also gave an IC50 [7] of 3.4 nM.
`CC(C)(C)c1cc(NC(=O)Nc2ccc(Oc3ccnc(NC(=O)N4CCCC4)c3)c3ccccc23)n(-c2ccc(O)cc2)n1` [Example 35, N-(4-(4-(3-(3-tert-butyl-1-(4-hydroxyphenyl)-1H-pyrazol-5-yl)ureido)naphthalen-1-yloxy)pyridin-2-yl)pyrrolidine-1-carboxamide] was tested, and the “MTT Assay (Viability) 4 h d-U937” value [2] was −15.4%, the “MTT Assay (Viability) 24 h d-U937” value [2] was −41.3% and the IC50 [3] was 1.9 nM. It also gave an IC50 [4] of 324 nM, an IC50 [5] of 2.1 nM and an IC50 [6] of 1.6 nM. For the same compound, the IC50 [7] was 11.3 nM.
With `CN(C)C(=O)Nc1cc(Oc2ccc(NC(=O)Nc3cc(C(C)(C)C)nn3-c3ccc(S(C)(=O)=O)cc3)c3ccccc23)ccn1` [Example 15, 3-(4-(4-(3-(3-tert-Butyl-1-(4-(methylsulfonyl)phenyl)-1H-pyrazol-5-yl)ureido)naphthalen-1-yloxy)pyridin-2-yl)-1,1-dimethylurea] the “MTT Assay (Viability) 4 h d-U937” value [2] was −15.4%, the “MTT Assay (Viability) 24 h d-U937” value [2] was −66.2% and the IC50 [3] was 2.4 nM. The IC50 [4] was 81.5 nM, the IC50 [5] was 16.3 nM and the IC50 [6] was 1.5 nM. The IC50 [7] was 23.6 nM.
